Test results from US11168075B2, “Compounds and their use for reducing uric acid levels” (Acquist LLC, priority 2016, dated 2021).
Where two headings read alike, the source gives them in different places.

Biological target: xanthine oxidase (Homo sapiens (Human), UniProt P47989)
Assay: Fluorescence-based xanthine oxidase activity assay
Type: biochemical
Settings: for inhibition of xanthine oxidase compared to allopurinol: statement in words
[1] = read-out: Xanthine Oxidase IC50

Sequence of xanthine oxidase (P47989 whole entry, species assumed): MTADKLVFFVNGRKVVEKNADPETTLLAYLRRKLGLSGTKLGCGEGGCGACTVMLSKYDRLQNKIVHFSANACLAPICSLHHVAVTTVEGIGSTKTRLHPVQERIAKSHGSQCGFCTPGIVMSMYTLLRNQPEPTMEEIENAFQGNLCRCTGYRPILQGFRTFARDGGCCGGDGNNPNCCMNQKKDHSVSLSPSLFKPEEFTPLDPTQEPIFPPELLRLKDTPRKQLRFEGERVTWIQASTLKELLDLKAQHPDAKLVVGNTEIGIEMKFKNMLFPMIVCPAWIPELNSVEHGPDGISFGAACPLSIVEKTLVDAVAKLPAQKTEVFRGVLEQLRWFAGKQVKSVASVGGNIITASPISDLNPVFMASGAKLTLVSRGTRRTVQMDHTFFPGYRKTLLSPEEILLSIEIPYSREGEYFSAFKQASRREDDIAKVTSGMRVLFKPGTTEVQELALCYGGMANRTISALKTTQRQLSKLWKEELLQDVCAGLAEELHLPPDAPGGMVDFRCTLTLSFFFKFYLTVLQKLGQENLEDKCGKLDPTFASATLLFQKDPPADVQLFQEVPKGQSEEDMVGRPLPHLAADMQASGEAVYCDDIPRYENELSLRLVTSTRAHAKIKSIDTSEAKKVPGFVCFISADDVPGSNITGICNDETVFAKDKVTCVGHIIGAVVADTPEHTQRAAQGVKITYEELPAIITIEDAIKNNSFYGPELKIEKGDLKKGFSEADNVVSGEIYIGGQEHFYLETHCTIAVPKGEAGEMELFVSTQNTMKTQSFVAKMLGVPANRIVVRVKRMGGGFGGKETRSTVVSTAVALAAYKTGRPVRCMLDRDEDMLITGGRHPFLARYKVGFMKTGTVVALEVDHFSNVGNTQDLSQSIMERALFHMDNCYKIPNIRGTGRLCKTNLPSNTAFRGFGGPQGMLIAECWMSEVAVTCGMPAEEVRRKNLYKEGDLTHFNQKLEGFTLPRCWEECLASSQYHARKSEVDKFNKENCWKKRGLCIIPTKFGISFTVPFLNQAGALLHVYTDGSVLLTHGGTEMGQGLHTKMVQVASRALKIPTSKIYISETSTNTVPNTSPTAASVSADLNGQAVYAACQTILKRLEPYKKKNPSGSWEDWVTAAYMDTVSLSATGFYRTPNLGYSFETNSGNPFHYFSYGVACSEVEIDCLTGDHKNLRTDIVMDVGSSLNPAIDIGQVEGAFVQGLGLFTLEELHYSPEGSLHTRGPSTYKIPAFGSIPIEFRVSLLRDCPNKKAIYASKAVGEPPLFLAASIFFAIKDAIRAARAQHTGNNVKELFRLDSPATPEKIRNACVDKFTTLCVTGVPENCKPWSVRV

Compound | IC50 [1] | inhibition of xanthine oxidase compared to allopurinol | IC50
O=C(Nc1ccc2[nH]c(=O)[nH]c2c1)c1c(O)[nH]c(=O)[nH]c1=O [Formula (IVa), 6-hydroxy-2,4-dioxo-N-(2-oxo-2,3-dihydro-1H-benzo[d]imidazol-5-yl)-1,2,3,4-tetrahydropyrimidine-5-carboxamide] | 8.6 µM | – | –
Cn1c(O)c(C(=N)Nc2ccc(-c3cnn[nH]3)cc2)c(=O)n(C)c1=O [Formula (If), N-(4-(1H-1,2,3-triazol-5-yl)phenyl)-6-hydroxy-1,3-dimethyl-2,4-dioxo-1,2,3,4-tetrahydropyrimidine-5-carboximidamide] | 0.2 µM | particularly potent inhibitors | –
Nc1[nH]c(=O)[nH]c(=O)c1C(=O)Nc1ccc(-c2c[nH]nn2)cc1 [Formula (Ik), N-(4-(1H-1,2,3-triazol-5-yl)phenyl)-6-amino-2,4-dioxo-1,2,3,4-tetrahydropyrimidine-5-carboxamide] | 1.3 µM | particularly potent inhibitors | –
Cn1c(=O)c2c(Nc3ccc(-c4cnn[nH]4)cc3)n[nH]c2n(C)c1=O [Formula (VIc), 3-((4-(1H-1,2,3-triazol-5-yl)phenyl)amino)-5,7-dimethyl-1H-pyrazolo[3,4-d]pyrimidine-4,6(5H,7H)-dione] | 2.5 µM | – | –
O=C1NS(=O)(=O)c2cc(NC(=O)c3c(O)[nH]c(=O)[nH]c3=O)ccc21 [Formula (IIIa), N-(1,1-dioxido-3-oxo-2,3-dihydrobenzo[d]isothiazol-6-yl)-2,4,6-trihydroxypyrimidine-5-carboxamide] | 4.5 µM | – | –
O=C(NO)c1ccc(NC(=O)c2c(O)[nH]c(=O)[nH]c2=O)cc1 [Formula (VIIIa), 6-hydroxy-N-(4-(hydroxycarbamoyl)phenyl)-2,4-dioxo-1,2,3,4-tetrahydropyrimidine-5-carboxamide] | 17.4 µM | – | –
O=C(NO)c1cc(NC(=O)c2c(O)[nH]c(=O)[nH]c2=O)ccn1 [Formula (VIIIb), 6-hydroxy-N-(2-(hydroxycarbamoyl)pyridin-4-yl)-2,4-dioxo-1,2,3,4-tetrahydropyrimidine-5-carboxamide] | 73.8 µM | – | –
O=C(NC1CCC(O)(c2c[nH]nn2)CC1)c1c(O)[nH]c(=O)[nH]c1=O (stereo not shown) [Formula (Ij), 6-hydroxy-N-(4-hydroxy-4-(1H-1,2,3-triazol-4-yl)cyclohexyl)-2,4-dioxo-1,2,3,4-tetrahydropyrimidine-5-carboxamide] | 13.1 µM | – | –
O=C(Nc1nc(O)c2cn[nH]c2n1)c1c(O)[nH]c(=O)[nH]c1=O [Formula (Va), 6-hydroxy-N-(4-hydroxy-1H-pyrazolo[3,4-d]pyrimidin-6-yl)-2,4-dioxo-1,2,3,4-tetrahydropyrimidine-5-carboxamide] | 36.1 µM | – | –
Cn1c(=O)[nH]c(O)c(C(=N)Nc2ccc(-c3cnn[nH]3)cc2)c1=O [Formula (Ih)] | – | particularly potent inhibitors | 0.74 µM
COc1nc(O)c(C(=O)Nc2ccc(-c3cnn[nH]3)cc2)c(=O)[nH]1 [Formula (IIb), N-(4-(3H-1,2,3-triazol-4-yl)phenyl)-4-hydroxy-2-methoxy-6-oxo-1,6-dihydropyrimidine-5-carboxamide] | 0.56 µM | particularly potent inhibitors | –
O=C(Nc1c(O)[nH]c(=O)[nH]c1=O)c1ccc(-c2cnn[nH]2)cc1 [Formula (Il), 4-(1H-1,2,3-triazol-4-yl)-N-(2,4,6-trioxohexahydropyrimidin-5-yl)benzamide] | – | – | 6.3 µM
CS/C(=N\c1ccc(-c2cnn[nH]2)cc1)c1c(O)[nH]c(=O)[nH]c1=O [Formula (Ib), 5-(((4-(1H-1,2,3-triazol-5-yl)phenyl)amino)(methylthio)methylene)pyrimidine-2,4,6(1H,3H,5H)-trione] | – | – | 54.1 µM
O=c1[nH]c(O)c(/C(=N\O)Nc2ccc(-c3cnn[nH]3)cc2)c(=O)[nH]1 [Formula (Ic), (E)-N-(4-(1H-1,2,3-triazol-5-yl)phenyl)-N′-hydroxy-2,4,6-trioxohexahydro-pyrimidine-5-carboximidamide] | – | – | 1.2 µM
CC(C)Sc1nc(O)c(C(=O)Nc2ccc(-c3c[nH]nn3)cc2)c(=O)[nH]1 [Formula (IId), N-(4-(1H-1,2,3-triazol-5-yl)phenyl)-4-hydroxy-2-(isopropylthio)-6-oxo-1,6-dihydropyrimidine-5-carboxamide] | – | particularly potent inhibitors | –
O=C(NC1CCC(c2c[nH]nn2)CC1)c1c(O)[nH]c(=O)[nH]c1=O (stereo not shown) [Formula (Ii)] | > 296 µM | – | –
O=C1Nc2ccc(NC(=O)c3c(O)[nH]c(=O)[nH]c3=O)cc2C1=O [Formula (IVb), N-(2,3-dioxoindolin-5-yl)-6-hydroxy-2,4-dioxo-1,2,3,4-tetrahydropyrimidine-5-carboxamide] | > 300 µM | – | –
O=c1[nH]c(=O)c2c(Nc3ccc(-c4cnn[nH]4)cc3)n[nH]c2[nH]1 [Formula (VIb), 3-((4-(1H-1,2,3-triazol-5-yl)phenyl)amino)-1H-pyrazolo[3,4-d]pyrimidine-4,6(5H,7H)-dione] | 0.14 µM | particularly potent inhibitors | –
N=C(Nc1ccc(-c2cnn[nH]2)cc1)c1c(O)[nH]c(=O)[nH]c1=O [Formula (Ia), N-(4-(1H-1,2,3-triazol-4-yl)phenyl)-6-hydroxy-2,4-dioxo-1,2,3,4-tetrahydropyrimidine-5-carboximidamide] | 0.25 µM | particularly potent inhibitors | –
N/N=C(/Nc1ccc(-c2cnn[nH]2)cc1)c1c(O)[nH]c(=O)[nH]c1=O [Formula (Id), (E)-N-(4-(1H-1,2,3-triazol-5-yl)phenyl)-2,4,6-trioxohexahydropyrimidine-5-carbohydrazonamide] | – | – | > 300 µM
O=C(Nc1ccc(-c2[nH]nnc2-c2ccccc2)cc1)c1c(O)[nH]c(=S)[nH]c1=O [Formula (Im), 6-hydroxy-4-oxo-N-(4-(4-phenyl-1H-1,2,3-triazol-5-yl)phenyl)-2-thioxo-1,2,3,4-tetrahydropyrimidine-5-carboxamide] | 18.2 µM | – | –
O=C(Nc1ccc2c(c1)C1(OCCO1)C(=O)N2)c1c(O)[nH]c(=O)[nH]c1=O [Formula (IVc), 6-Hydroxy-2,4-dioxo-N-(2′-oxospiro[[1,3]dioxolane-2,3′-indolin]-5′-yl)-1,2,3,4-tetrahydropyrimidine-5-carboxamide] | – | – | > 300 µM
O=c1nc2[nH]n(-c3ccc(-c4cnn[nH]4)cc3)c(=O)c2c(O)[nH]1 [Formula (VIIa), 2-(4-(1H-1,2,3-triazol-5-yl)phenyl)-4,6-dihydroxy-1H-pyrazolo[3,4-d]pyrimidin-3(2H)-one] | 7 µM | – | –
O=C(Nc1ccc(-c2noc(C(F)(F)F)n2)cc1)c1c(O)[nH]c(=O)[nH]c1=O [Formula (In), 6-hydroxy-2,4-dioxo-N-(4-(5-(trifluoromethyl)-1,2,4-oxadiazol-3-yl)phenyl)-1,2,3,4-tetrahydropyrimidine-5-carboxamide] | – | – | 292 µM
Cn1c(=O)[nH]c(O)c(C(=O)Nc2ccc(-c3cnn[nH]3)cc2)c1=O [Formula (Ig), N-(4-(1H-1,2,3-triazol-4-yl)phenyl)-2,4-dihydroxy-1-methyl-6-oxo-1,6-dihydropyrimidine-5-carboxamide] | 0.55 µM | particularly potent inhibitors | –
Cn1c(O)c(C(=O)Nc2ccc(-c3cnn[nH]3)cc2)c(=O)n(C)c1=O [Formula (Ie), N-(4-(1H-1,2,3-triazol-4-yl)phenyl)-6-hydroxy-1,3-dimethyl-2,4-dioxo-1,2,3,4-tetrahydropyrimidine-5-carboxamide] | 1.6 µM | particularly potent inhibitors | –
